According to patent US10112922B2, “Inhibitor of bruton's tyrosine kinase” (Centaurus BioPharma Co., Ltd., priority 2014, dated 2018):
Entries after “also recorded” stand apart in the source; their conditions may differ. Read-outs that look alike come from different tables or passages of the source.

Tests used:
[1] = tested on: type II collagen-induced arthritis; assay: Type II collagen-induced arthritis mice model; type: in vivo, DBA/1 mice
Experimental: The mice were randomly grouped according to their arthritis scores when the onset of arthritis was observed after 4 weeks. Compounds were then administered continuously for 4 weeks, during which the arthritis scores were evaluated for each mouse and the body weights thereof were measure every other day. The criteria for evaluating the arthritis score were as follows:
1=erythema and mild swelling at ankle joint;
2=erythema and mild swelling from ankle joint to phalangeal joint or metacarpal joint;
3=erythema and moderate swelling from ankle joint to phalangeal joint or metacarpal joint;
4=erythema and severe swelling or ankylosis on whole foot including from ankle joint to phalangeal joint.
Each paw was scored according to the above criteria, and the highest score was 16.

[2] = Toxicity test in mice (7-day oral administration); type: in vivo, CD-1 (ICR) mice; settings: for Average body weight of mice / Changes (%) in mice body weight in treated group over control group: 1000 mg/kg oral once a day
Description: Body weights and conditions of mice were monitored every day, during which all mice were not fasting.

Btk kinase = Btk kinase (Homo sapiens (Human), UniProt Q06187); assay: Btk kinase enzymatic activity assay (HTRF); type: biochemical
Sequence of Btk kinase (Q06187 whole entry): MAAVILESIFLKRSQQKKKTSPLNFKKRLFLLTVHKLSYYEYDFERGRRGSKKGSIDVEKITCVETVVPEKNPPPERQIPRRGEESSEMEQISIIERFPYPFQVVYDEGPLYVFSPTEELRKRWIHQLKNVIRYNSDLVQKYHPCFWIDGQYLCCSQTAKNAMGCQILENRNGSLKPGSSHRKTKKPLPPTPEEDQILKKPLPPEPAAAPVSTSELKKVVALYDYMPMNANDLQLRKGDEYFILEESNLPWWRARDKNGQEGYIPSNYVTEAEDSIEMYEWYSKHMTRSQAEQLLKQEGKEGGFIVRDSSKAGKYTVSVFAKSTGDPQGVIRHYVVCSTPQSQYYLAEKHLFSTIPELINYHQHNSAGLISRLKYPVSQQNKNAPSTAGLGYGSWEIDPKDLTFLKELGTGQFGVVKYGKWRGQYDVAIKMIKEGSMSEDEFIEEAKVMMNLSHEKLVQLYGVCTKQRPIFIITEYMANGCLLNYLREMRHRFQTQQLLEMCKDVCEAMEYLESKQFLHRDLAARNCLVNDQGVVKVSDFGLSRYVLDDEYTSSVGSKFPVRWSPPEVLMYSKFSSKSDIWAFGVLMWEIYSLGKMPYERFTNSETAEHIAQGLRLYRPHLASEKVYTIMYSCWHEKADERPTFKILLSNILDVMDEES
Experimental: The half inhibition concentrations (IC50 values) of the compounds disclosed herein on Btk were determined at both enzymatic level and cellular level: the ability of the compounds to inhibit the activity of Btk kinase was determined in an enzymtic activity assay, and the inhibitory effect of the compounds on BCR-induced calcium flux in cells was determined in a cellular function assay.
(§1) The compounds were gradiently diluted 3 folds starting from 1 mM with 100% DMSO (totally 11 concentrations). 4 μL of each sample with a different concentration was added into 96 μL of reaction buffer (50 mM HEPES, pH 7.4, 10 mM MgCl2, 1 mM EGTA, 0.01% Tween-20, 0.005% BAS, 2 mM DTT). […] The mixture was centrifuged to mix well, followed by adding 2.5 μL of a mixture of ATP (final concentration designated as Km) and TK petide (HTRF® KinEASE™-TK, Cisbio) to initiate the reaction (total reaction volume being 10 μL). […] The enzyme activity for each compound was determined at 11 concentrations, and IC50 values were obtained by GraFit Software 6.0 (Erithacus Software).

OCI-LY-10 cells = assay: Efficacy in subcutaneously xenografted tumor model in mice; type: in vivo, CB-17 SCID mice; settings: 100 mg/kg PO QD
Experimental: SPF grade female CB-17 SCID mice (4-5 week) were used. 0.1 ml of OCI-LY-10 cells suspended in serum-free medium (containing 5×10^6 cells, 30% Matrigel) were injected subcutaneously in both the left and the right flanks of mice. Mice were grouped and numbered when the average tumor volumes were more than 100 mm3, and the body weights and tumor volumes were determined. The mice were randomly grouped according to tumor volumes, and appropriate adjustments were made so that the average body weight in each group is on the same level. Animals were dosed orally on the same day when they were grouped, and body weights and tumor volumes were measured twice a week. Relative tumor growth (T/C) and Tumor growth inhibition (TGI) were the major test indeces.
The equation for calculating the tumor volume is V=0.5×a×b^2, wherein v is the tumor volume, a and b are the length and the width of the tumor, respectively. The relative tumor volume (RTV) was calculated according to the tumor volume with the equation RTV=Vt/V0, wherein V0 was the tumor volume at the time when the animals were grouped, and Vt was the tumor volume at indicated time points. The equation for calculating the relative tumor proliferation rate was T/C (%)=TRTV/CRTV*100%. (TRTV was the RTV of treated group, and CRTV was the RTV of control group).
The equation for calculating the tumor growth inhibition rate was TGI (%)=(1−(tumor volume of the treated group−tumor volume of the treated group at the time when the animals were grouped)/(tumor volume of the control group−tumor volume of the control group at the time when the animals were grouped))*100%.

ITK kinase = ITK kinase (Homo sapiens (Human), UniProt Q08881); assay: ITK kinase enzymatic assay (same HTRF method as BTK); type: biochemical
Sequence of ITK kinase (Q08881 whole entry): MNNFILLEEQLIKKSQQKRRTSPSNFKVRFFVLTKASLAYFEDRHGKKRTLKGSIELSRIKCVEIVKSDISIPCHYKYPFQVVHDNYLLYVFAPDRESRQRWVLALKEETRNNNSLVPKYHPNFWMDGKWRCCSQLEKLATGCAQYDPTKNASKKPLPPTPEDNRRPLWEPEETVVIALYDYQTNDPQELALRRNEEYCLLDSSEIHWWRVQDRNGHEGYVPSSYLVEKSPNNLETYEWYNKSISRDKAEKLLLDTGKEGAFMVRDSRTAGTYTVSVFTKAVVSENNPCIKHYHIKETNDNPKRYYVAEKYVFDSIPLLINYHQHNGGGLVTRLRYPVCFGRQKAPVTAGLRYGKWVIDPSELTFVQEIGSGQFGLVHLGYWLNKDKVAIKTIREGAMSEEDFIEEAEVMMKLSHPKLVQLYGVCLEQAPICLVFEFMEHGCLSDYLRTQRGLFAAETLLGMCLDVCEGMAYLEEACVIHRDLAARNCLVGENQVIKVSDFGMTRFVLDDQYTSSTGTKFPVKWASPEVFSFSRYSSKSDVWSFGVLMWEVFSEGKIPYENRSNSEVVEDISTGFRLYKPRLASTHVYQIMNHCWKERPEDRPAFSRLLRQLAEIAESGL
Experimental: as §1
In vitro activity in inhibiting ITK kinase was determined similar to that in respect of BTK kinase.

[3] = 1000 mg/kg oral once a day for 7 days

For `COC/C=C/C(=O)N1CC[C@@H](n2nc(-c3ccc(Oc4ccccc4)cc3)c(C(N)=O)c2N)C1` [Example 9, (R,E)-5-amino-1-(1-(4-methoxybut-2-enoyl)pyrrolidin-3-yl)-3-(4-phenoxyphenyl)-1H-pyrazole-4-carboxamide], the “therapeutic effect on arthritis at very low dosage” value ([1]; 0.3 mg/kg) was “good therapeutic effect; also recorded: comparable to that of 3 mg/kg of PCI-32765”, the “arthritis (arthritis score) after administration” value ([1]; administered continuously for 4 weeks, FIG. 1) was “significantly alleviated” and the “difference in body weight change from control group” value [2, 3] was under 2%. The toxicity [2, 3] was “no toxicity”, the “Average body weight of mice” value ([2]; Day 1) was 24.4 g and the “Changes (%) in mice body weight in treated group over control group” value (shortened to “Changes (%) in mice body weight”) ([2]; Day 1) was 100.0%. For the same molecule, the “Average body weight of mice” value ([2]; Day 2) was 24.6 g, the “Changes (%) in mice body weight” value ([2]; Day 2) was 100.0% and the “Average body weight of mice” value ([2]; Day 3) was 25.1 g. The “Changes (%) in mice body weight” value ([2]; Day 3) was 100.3%, the “Average body weight of mice” value ([2]; Day 4) was 25.6 g and the “Changes (%) in mice body weight” value ([2]; Day 4) was 101.1%. For the same molecule, the “Average body weight of mice” value ([2]; Day 5) was 26.4 g, the “Changes (%) in mice body weight” value ([2]; Day 5) was 101.8% and the “Average body weight of mice” value ([2]; Day 6) was 26.9 g. The “Changes (%) in mice body weight” value ([2]; Day 6) was 101.7%, the “Average body weight of mice” value ([2]; Day 7) was 27.2 g and the “Changes (%) in mice body weight” value ([2]; Day 7) was 101.7%. For the same molecule, the IC50 (Btk kinase; Table 1, read-out: Btk IC50) was under 100 nM, the IC50 (Btk kinase; Table 5, kinase selectivity test, read-out: IC50 (nM) BTK) was 1.9 nM and the “selectivity on BTK vs ITK” value (Btk kinase; calculated from IC50 values) was “more than 1000 folds”. For the same molecule, the “TGI (%) Day 3” value (OCI-LY-10 cells; Day 3) was 45.79%, the “TGI (%) Day 8” value (OCI-LY-10 cells; Day 8) was 39.37% and the “TGI (%) Day 11” value (OCI-LY-10 cells; Day 11) was 43.05%. It also gave an IC50 (ITK kinase; Table 1, read-out: Itk IC50) of over 1000 nM and an IC50 (ITK kinase; Table 5, kinase selectivity test, read-out: IC50 (nM) ITK) of over 1000 nM.
